Test results: patent US12173018B2, “Penicillin-binding protein inhibitors” (priority 2018, dated 2024)
Values after ≈ are worked out from the molar mass of the structure shown. Read-outs that look alike come from different tables or passages of the source.

Assays:
[1] = tested on: K. pneumoniae UMM; assay: microbe, parasite or virus in culture; format: cell-based; conditions: Klebsiella pneumoniae; K. pneumoniae UMM producing SHV-5 and KPC-2; read-out: MIC K. pneumoniae UMM
Method in brief: (§1)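 Broth microdilution MICs followed CLSI methods in cation-supplemented Mueller-Hinton broth, with 2-fold serial compound dilutions. Log-phase cultures grown 3–5 h were added to a starting inoculum of 5×10^5 CFU/mL and incubated 16–20 h at 37 °C. The MIC was read visually as the lowest concentration with no growth.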

[2] = tested on: K. pneumoniae SI-117; assay: microbe, parasite or virus in culture; format: cell-based; conditions: Klebsiella pneumoniae, SI117, read-out: MIC K. pneumoniae SI-117
Method in brief: as §1

[3] = biological target: E. coli PBP3 (Escherichia coli (strain K12), UniProt P0AD68); assay: E. coli PBP3 Bocillin-FL fluorescence polarization competition binding assay
Sequence of E. coli PBP3 (P0AD68 whole entry): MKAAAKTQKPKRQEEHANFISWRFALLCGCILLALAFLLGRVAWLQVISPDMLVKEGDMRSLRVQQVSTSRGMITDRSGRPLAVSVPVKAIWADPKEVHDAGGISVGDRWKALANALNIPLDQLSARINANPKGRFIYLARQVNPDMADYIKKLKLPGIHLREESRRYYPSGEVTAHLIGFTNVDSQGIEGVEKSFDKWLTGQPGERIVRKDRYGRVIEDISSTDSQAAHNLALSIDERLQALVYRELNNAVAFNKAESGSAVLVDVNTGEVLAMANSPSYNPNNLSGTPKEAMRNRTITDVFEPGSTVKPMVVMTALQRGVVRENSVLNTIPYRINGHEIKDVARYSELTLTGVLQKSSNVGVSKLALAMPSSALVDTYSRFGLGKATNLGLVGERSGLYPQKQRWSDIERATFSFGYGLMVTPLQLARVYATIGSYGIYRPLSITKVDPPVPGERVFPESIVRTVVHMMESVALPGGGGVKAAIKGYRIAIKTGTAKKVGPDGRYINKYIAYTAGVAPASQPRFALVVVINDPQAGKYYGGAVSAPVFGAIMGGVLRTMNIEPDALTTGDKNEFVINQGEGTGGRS
Method in brief: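 Purified E. coli PBP (1.5 μM final) competed with inhibitor (0-1000 μM) for Bocillin-FL (0.1 μM final) in 50 mM Hepes pH 8.0, 300 mM NaCl, 5% glycerol. Fluorescence polarization (ex 490/em 520 nm) was read continuously for 60 min after Bocillin-FL addition. EC50 was the concentration that reduced Bocillin-FL binding by 50%.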

[4] = tested on: E. coli ATCC 25922; assay: Broth microdilution MIC, E. coli ATCC 25922; format: cell-based; conditions: Escherichia coli
Method in brief: as §1

[5] = tested on: N. gonorrhoeae FA19; assay: Liquid broth MIC, N. gonorrhoeae FA19; format: cell-based; conditions: Neisseria gonorrhoeae; N. gonorrhoeae FA19, liquid broth; read-out: Minimum Inhibitory Concentration, N. gonorrhoeae FA19
Method in brief: (§2)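 Broth microdilution in wild-type strains: colonies from GC agar with 1% Kellogg's supplement suspended in GC broth, inoculated at 5×10^5 CFU/mL into 2-fold compound dilutions. Plates incubated 40-42 hours at 36° C., 5% CO2; MIC read visually as lowest concentration with no growth.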

[6] = tested on: N. gonorrhoeae FA1090; assay: Liquid broth MIC, N. gonorrhoeae FA1090; format: cell-based; conditions: Neisseria gonorrhoeae; N. gonorrhoeae FA1090, liquid broth; read-out: Minimum Inhibitory Concentration, N. gonorrhoeae FA1090
Method in brief: as §2

[7] = tested on: N. gonorrhoeae WHO F; assay: Liquid broth MIC, N. gonorrhoeae WHO F; format: cell-based; conditions: Neisseria gonorrhoeae; N. gonorrhoeae WHO F, liquid broth; read-out: Minimum Inhibitory Concentration, N. gonorrhoeae WHO F
Method in brief: as §2

[8] = ATCC25922, E. coli ATCC 25922, broth microdilution, read-out: MIC E. coli 25922
[9] = fluorescence polarization competition binding with Bocillin-FL, read-out: E. coli K12 PBP3 Potency

Structure (SMILES) | MIC [1] [µg/mL] | MIC [2] [µg/mL] | EC50 [3] [µM] | MIC [4, 8] [µg/mL] | MIC ([4]; ATCC25922, read-out: MIC E. coli 25922) [µg/mL] | EC50 [3, 9] [µM] | MIC [5] [µg/mL] | MIC [6] [µg/mL] | MIC [7] [µg/mL]
CCN1CCN(C(=O)NC(C(=O)N[C@H]2Cc3cc(F)cc(C(=O)O)c3OB2O)c2csc(N)n2)C(=O)C1=O (stereo partly drawn) [Example 16, (3R)-3-(2-(2-aminothiazol-4-yl)-2-(4-ethyl-2,3-dioxopiperazine-1-carboxamido)acetamido)-6-fluoro-2-hydroxy-3,4-dihydro-2H-benzo[e][1,2]oxaborinine-8-carboxylic acid] | 32 to 64 | 32 to 64 | 30 to 500 | 32 to 64 | – | – | – | – | –
CCN1CCN(C(=O)NC(C(=O)N[C@H]2Cc3cccc(C(=O)O)c3OB2O)c2ccc(O)cc2)C(=O)C1=O (stereo partly drawn) [Example 27, (3R)-3-(2-(4-ethyl-2,3-dioxopiperazine-1-carboxamido)-2-(4-hydroxyphenyl)acetamido)-2-hydroxy-3,4-dihydro-2H-benzo[e][1,2]oxaborinine-8-carboxylic acid] | 32 to 64 | 32 to 64 | 30 to 500 | – | 32 to 64 | – | – | – | –
CCN1CCN(C(=O)NC(C(=O)N[C@H]2Cc3cccc(C(=O)O)c3OB2O)c2ccc(O)c(O)c2Cl)C(=O)C1=O (stereo partly drawn) [Example 37, (3R)-3-(2-(2-chloro-3,4-dihydroxyphenyl)-2-(4-ethyl-2,3-dioxopiperazine-1-carboxamido)acetamido)-2-hydroxy-3,4-dihydro-2H-benzo[e][1,2]oxaborinine-8-carboxylic acid] | 8 to 16 | – | – | 32 to 64 | – | < 30 | 4 to 8 (≈ 6.96 to 13.9 µM) | 1 to 2 (≈ 1.74 to 3.48 µM) | 1 to 2 (≈ 1.74 to 3.48 µM)
CCN1CCN(C(=O)NC(C(=O)N[C@H]2Cc3cccc(C(=O)O)c3OB2O)c2cnc(N)s2)C(=O)C1=O (stereo partly drawn) [Example 51, (3R)-3-(2-(2-aminothiazol-5-yl)-2-(4-ethyl-2,3-dioxopiperazine-1-carboxamido)acetamido)-2-hydroxy-3,4-dihydro-2H-benzo[e][1,2]oxaborinine-8-carboxylic acid] | 32 to 64 | – | 30 to 500 | 8 to 16 | – | – | – | – | –
O=C(O)c1cccc2c1OB(O)[C@@H](NC(=O)C(NC(=O)N1CCN(CCF)C(=O)C1=O)c1ccc(O)c(O)c1Cl)C2 (stereo partly drawn) [Example 71, (3R)-3-(2-(2-chloro-3,4-dihydroxyphenyl)-2-(4-(2-fluoroethyl)-2,3-dioxopiperazine-1-carboxamido)acetamido)-2-hydroxy-3,4-dihydro-2H-benzo[e][1,2]oxaborinine-8-carboxylic acid] | 32 to 64 | – | – | 8 to 16 | – | < 30 | – | – | –
CCCN1CCN(C(=O)NC(C(=O)N[C@H]2Cc3cccc(C(=O)O)c3OB2O)c2ccc(O)c(O)c2Cl)C(=O)C1=O (stereo partly drawn) [Example 82, (3R)-3-(2-(2-chloro-3,4-dihydroxyphenyl)-2-(2,3-dioxo-4-propylpiperazine-1-carboxamido)acetamido)-2-hydroxy-3,4-dihydro-2H-benzo[e][1,2]oxaborinine-8-carboxylic acid] | 32 to 64 | 32 to 64 | – | 32 to 64 | – | < 30 | – | – | –
CCN1CCN(C(=O)NC(C(=O)N[C@H]2Cc3cccc(C(=O)O)c3OB2O)c2ccc(O)cc2F)C(=O)C1=O (stereo partly drawn) [Example 87, (3R)-3-(2-(4-ethyl-2,3-dioxopiperazine-1-carboxamido)-2-(2-fluoro-4-hydroxyphenyl)acetamido)-2-hydroxy-3,4-dihydro-2H-benzo[e][1,2]oxaborinine-8-carboxylic acid] | – | – | – | – | – | < 30 | 4 to 8 (≈ 7.38 to 14.8 µM) | < 0.125 | < 0.125
CCN1CCN(C(=O)NC(C(=O)N[C@H]2Cc3cccc(C(=O)O)c3OB2O)c2cc(O)c(O)cc2F)C(=O)C1=O (stereo partly drawn) [Example 90, (3R)-3-(2-(4-ethyl-2,3-dioxopiperazine-1-carboxamido)-2-(2-fluoro-4,5-dihydroxyphenyl)acetamido)-2-hydroxy-3,4-dihydro-2H-benzo[e][1,2]oxaborinine-8-carboxylic acid] | 8 to 16 | > 128 | – | 8 to 16 | – | < 30 | – | – | –
CCN1CCN(C(=O)NC(C(=O)N[C@H]2Cc3cccc(C(=O)O)c3OB2O)c2ccc(S(N)(=O)=O)cc2)C(=O)C1=O (stereo partly drawn) [Example 102, (3R)-3-(2-(4-ethyl-2,3-dioxopiperazine-1-carboxamido)-2-(4-sulfamoylphenyl)acetamido)-2-hydroxy-3,4-dihydro-2H-benzo[e][1,2]oxaborinine-8-carboxylic acid] | 32 to 64 | – | – | 32 to 64 | – | < 30 | 1 to 2 (≈ 1.7 to 3.4 µM) | < 0.125 | < 0.125
CCN1CCN(C(=O)NC(C(=O)N[C@H]2Cc3cccc(C(=O)O)c3OB2O)c2cccc(N)n2)C(=O)C1=O (stereo partly drawn) [Example 104, (3R)-3-(2-(6-aminopyridin-2-yl)-2-(4-ethyl-2,3-dioxopiperazine-1-carboxamido)acetamido)-2-hydroxy-3,4-dihydro-2H-benzo[e][1,2]oxaborinine-8-carboxylic acid] | 32 to 64 | 32 to 64 | – | 8 to 16 | – | < 30 | – | – | –
CCN1CCN(C(=O)NC(C(=O)N[C@H]2Cc3cccc(C(=O)[O-])c3OB2O)c2ccc[n+](CC(N)=O)c2)C(=O)C1=O (stereo partly drawn) [Example 107, (3R)-3-(2-(1-(2-amino-2-oxoethyl)pyridin-1-ium-3-yl)-2-(4-ethyl-2,3-dioxopiperazine-1-carboxamido)acetamido)-2-hydroxy-3,4-dihydro-2H-benzo[e][1,2]oxaborinine-8-carboxylate] | 32 to 64 | 32 to 64 | – | 32 to 64 | – | > 500 | – | – | –
CCN1CCN(C(=O)N[C@@H](C(=O)N[C@H]2Cc3ccc(F)c(C(=O)O)c3OB2O)[C@@H](C)O)C(=O)C1=O [Example 110, (R)-3-((2R,3R)-2-(4-ethyl-2,3-dioxopiperazine-1-carboxamido)-3-hydroxybutanamido)-7-fluoro-2-hydroxy-3,4-dihydro-2H-benzo[e][1,2]oxaborinine-8-carboxylic acid] | 8 to 16 | 8 to 16 | 30 to 500 | 8 to 16 | – | – | – | – | –
CCN1CCN(C(=O)NC(C(=O)N[C@H]2Cc3cccc(C(=O)O)c3OB2O)c2cccs2)C(=O)C1=O (stereo partly drawn) [Example 115, (3R)-3-(2-(4-ethyl-2,3-dioxopiperazine-1-carboxamido)-2-(thiophen-2-yl)acetamido)-2-hydroxy-3,4-dihydro-2H-benzo[e][1,2]oxaborinine-8-carboxylic acid] | 32 to 64 | 32 to 64 | – | 32 to 64 | – | < 30 | – | – | –
CCN1CCN(C(=O)NC(C(=O)N[C@H]2Cc3cccc(C(=O)O)c3OB2O)c2cccc(O)n2)C(=O)C1=O (stereo partly drawn) [Example 117, (3R)-3-(2-(4-ethyl-2,3-dioxopiperazine-1-carboxamido)-2-(6-hydroxypyridin-2-yl)acetamido)-2-hydroxy-3,4-dihydro-2H-benzo[e][1,2]oxaborinine-8-carboxylic acid] | 32 to 64 | > 128 | 30 to 500 | 32 to 64 | – | – | – | – | –
CCN1CCN(C(=O)NC(C(=O)N[C@H]2Cc3cccc(C(=O)O)c3OB2O)c2cnc(O)cn2)C(=O)C1=O (stereo partly drawn) [Example 121, (3R)-3-(2-(4-ethyl-2,3-dioxopiperazine-1-carboxamido)-2-(5-hydroxypyrazin-2-yl)acetamido)-2-hydroxy-3,4-dihydro-2H-benzo[e][1,2]oxaborinine-8-carboxylic acid] | 8 to 16 | 32 to 64 | 30 to 500 | 32 to 64 | – | – | – | – | –
